Read-outs that look alike come from different tables or passages of the source.
Key:
Assay type in all cases: biochemical
HIPK3 = HIPK3 (Homo sapiens, UniProt Q9H422); experiment: Kinase profiling HIPK3; conditions: for remaining activity at 100 µM: read-out: residual kinase activity, HIPK3
Source text: (§1) Any value less that 25 is considered to be highly significant inhibition.

MAPKAP-K3 = MAPKAP-K3 (Homo sapiens, UniProt Q16644); experiment: Kinase profiling MAPKAP-K3; conditions: for remaining activity at 100 µM: read-out: residual kinase activity, MAPKAP-K3
Source text: as §1

TLK1 = biological target: T1, TLK1 (Homo sapiens, UniProt Q9UKI8); experiment: Kinase profiling TLK1; conditions: for remaining activity at 100 µM: read-out: residual kinase activity, TLK1
T1 sequence (Q9UKI8 1-766): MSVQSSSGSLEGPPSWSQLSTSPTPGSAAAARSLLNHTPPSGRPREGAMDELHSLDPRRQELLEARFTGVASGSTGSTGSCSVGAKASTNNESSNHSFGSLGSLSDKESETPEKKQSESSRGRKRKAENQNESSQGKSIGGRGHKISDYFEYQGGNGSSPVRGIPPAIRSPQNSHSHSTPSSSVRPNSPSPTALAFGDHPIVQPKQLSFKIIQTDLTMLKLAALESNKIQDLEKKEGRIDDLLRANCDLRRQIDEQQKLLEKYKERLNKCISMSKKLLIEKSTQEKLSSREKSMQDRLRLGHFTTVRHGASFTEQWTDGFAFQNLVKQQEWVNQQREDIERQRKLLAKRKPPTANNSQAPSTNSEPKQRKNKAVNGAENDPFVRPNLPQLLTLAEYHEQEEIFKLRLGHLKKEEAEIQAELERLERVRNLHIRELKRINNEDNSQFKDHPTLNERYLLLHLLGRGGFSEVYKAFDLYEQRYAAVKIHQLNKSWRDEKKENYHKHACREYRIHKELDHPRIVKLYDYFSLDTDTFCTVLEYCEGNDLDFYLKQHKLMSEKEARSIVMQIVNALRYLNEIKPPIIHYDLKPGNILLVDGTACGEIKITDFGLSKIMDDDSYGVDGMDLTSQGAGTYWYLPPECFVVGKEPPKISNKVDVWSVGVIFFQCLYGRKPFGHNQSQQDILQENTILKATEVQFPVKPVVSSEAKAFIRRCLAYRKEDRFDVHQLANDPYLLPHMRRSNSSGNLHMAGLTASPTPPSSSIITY
Source text: as §1

PRAK = biological target: T2, PRAK (Homo sapiens, UniProt Q8IW41); experiment: Kinase profiling PRAK; conditions: for remaining activity at 100 µM: read-out: residual kinase activity, PRAK
T2 sequence (Q8IW41 1-473): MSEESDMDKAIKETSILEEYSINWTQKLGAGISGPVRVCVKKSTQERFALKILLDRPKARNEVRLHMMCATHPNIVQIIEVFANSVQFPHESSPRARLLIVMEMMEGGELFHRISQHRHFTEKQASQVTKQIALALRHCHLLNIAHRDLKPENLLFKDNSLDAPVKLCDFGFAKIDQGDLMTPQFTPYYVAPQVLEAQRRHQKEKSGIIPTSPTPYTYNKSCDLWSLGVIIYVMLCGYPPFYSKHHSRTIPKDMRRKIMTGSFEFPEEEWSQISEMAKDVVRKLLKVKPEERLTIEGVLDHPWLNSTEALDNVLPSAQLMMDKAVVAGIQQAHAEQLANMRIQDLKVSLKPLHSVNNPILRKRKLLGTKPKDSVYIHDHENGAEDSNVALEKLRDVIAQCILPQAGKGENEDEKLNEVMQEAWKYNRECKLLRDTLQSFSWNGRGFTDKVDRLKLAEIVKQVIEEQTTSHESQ
Source text: as §1

PDGFRA = PDGFRA (Homo sapiens, UniProt P16234); experiment: Kinase profiling PDGFRA; conditions: for remaining activity at 100 µM: read-out: residual kinase activity, PDGFRA
Source text: as §1

ULK1 = biological target: T3, ULK1 (Homo sapiens, UniProt O75385); experiment: Kinase profiling ULK1; conditions: for remaining activity at 100 µM: read-out: residual kinase activity, ULK1
T3 sequence (O75385 1-1050): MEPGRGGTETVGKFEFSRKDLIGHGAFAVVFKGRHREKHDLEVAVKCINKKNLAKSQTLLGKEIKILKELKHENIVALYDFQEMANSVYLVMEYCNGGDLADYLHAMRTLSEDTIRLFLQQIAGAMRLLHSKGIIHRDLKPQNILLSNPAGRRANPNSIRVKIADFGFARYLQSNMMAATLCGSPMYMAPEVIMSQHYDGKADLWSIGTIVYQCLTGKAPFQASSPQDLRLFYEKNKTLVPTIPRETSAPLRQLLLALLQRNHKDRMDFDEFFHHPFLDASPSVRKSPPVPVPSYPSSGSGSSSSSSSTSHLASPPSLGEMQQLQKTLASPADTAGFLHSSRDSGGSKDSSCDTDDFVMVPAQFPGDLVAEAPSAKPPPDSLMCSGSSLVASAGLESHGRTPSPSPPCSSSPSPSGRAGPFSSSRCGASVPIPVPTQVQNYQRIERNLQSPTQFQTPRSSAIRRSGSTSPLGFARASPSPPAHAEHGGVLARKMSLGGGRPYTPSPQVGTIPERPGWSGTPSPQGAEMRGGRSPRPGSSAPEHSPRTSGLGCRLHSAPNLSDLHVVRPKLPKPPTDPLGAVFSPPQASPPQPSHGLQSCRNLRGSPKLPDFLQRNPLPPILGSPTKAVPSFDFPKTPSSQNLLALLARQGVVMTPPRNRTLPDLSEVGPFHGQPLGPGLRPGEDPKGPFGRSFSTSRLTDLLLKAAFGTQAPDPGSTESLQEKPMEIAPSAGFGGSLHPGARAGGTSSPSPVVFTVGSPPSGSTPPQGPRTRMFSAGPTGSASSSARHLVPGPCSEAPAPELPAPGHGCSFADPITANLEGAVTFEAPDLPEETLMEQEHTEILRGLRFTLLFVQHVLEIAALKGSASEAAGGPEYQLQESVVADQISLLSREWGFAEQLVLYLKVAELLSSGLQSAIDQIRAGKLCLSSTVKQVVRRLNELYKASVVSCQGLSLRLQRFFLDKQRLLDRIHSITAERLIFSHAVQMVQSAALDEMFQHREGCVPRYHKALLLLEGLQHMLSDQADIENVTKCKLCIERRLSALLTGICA
Source text: as §1

TGFBR1 = biological target: T4, TGFBR1 (Homo sapiens, UniProt P36897); experiment: Kinase profiling TGFBR1; conditions: for remaining activity at 100 µM: read-out: residual kinase activity, TGFBR1
T4 sequence (P36897 34-503): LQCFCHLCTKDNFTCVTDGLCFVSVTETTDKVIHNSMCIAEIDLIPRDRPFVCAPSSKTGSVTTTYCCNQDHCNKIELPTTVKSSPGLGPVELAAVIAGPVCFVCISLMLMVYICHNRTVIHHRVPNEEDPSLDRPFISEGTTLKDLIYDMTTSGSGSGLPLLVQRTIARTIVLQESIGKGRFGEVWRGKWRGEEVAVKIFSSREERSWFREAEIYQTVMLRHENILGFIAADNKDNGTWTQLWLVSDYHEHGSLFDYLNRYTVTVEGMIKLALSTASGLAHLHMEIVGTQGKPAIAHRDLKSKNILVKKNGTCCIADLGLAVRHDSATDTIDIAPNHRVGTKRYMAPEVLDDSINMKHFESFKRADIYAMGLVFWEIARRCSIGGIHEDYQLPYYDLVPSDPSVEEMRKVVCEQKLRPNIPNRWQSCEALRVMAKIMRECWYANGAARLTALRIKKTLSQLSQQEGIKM
Source text: as §1

[1] = 100 micromolar inhibitor concentration, 100 is no change
[2] = 100 micromolar inhibitor, 100 = no change

Chain of MAPKAP-K3 (Q16644 whole entry, species assumed): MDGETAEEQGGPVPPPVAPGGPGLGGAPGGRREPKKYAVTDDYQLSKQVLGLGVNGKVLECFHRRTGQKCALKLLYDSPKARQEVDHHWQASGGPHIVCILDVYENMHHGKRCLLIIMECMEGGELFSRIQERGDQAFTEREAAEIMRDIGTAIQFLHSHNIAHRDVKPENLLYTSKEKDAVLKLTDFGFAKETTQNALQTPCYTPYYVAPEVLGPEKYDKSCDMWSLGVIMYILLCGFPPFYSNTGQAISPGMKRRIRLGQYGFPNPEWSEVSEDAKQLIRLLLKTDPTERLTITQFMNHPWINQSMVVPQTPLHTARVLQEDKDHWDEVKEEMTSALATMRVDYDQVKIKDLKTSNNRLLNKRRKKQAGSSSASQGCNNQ
Chain of HIPK3 (Q9H422 whole entry, species assumed): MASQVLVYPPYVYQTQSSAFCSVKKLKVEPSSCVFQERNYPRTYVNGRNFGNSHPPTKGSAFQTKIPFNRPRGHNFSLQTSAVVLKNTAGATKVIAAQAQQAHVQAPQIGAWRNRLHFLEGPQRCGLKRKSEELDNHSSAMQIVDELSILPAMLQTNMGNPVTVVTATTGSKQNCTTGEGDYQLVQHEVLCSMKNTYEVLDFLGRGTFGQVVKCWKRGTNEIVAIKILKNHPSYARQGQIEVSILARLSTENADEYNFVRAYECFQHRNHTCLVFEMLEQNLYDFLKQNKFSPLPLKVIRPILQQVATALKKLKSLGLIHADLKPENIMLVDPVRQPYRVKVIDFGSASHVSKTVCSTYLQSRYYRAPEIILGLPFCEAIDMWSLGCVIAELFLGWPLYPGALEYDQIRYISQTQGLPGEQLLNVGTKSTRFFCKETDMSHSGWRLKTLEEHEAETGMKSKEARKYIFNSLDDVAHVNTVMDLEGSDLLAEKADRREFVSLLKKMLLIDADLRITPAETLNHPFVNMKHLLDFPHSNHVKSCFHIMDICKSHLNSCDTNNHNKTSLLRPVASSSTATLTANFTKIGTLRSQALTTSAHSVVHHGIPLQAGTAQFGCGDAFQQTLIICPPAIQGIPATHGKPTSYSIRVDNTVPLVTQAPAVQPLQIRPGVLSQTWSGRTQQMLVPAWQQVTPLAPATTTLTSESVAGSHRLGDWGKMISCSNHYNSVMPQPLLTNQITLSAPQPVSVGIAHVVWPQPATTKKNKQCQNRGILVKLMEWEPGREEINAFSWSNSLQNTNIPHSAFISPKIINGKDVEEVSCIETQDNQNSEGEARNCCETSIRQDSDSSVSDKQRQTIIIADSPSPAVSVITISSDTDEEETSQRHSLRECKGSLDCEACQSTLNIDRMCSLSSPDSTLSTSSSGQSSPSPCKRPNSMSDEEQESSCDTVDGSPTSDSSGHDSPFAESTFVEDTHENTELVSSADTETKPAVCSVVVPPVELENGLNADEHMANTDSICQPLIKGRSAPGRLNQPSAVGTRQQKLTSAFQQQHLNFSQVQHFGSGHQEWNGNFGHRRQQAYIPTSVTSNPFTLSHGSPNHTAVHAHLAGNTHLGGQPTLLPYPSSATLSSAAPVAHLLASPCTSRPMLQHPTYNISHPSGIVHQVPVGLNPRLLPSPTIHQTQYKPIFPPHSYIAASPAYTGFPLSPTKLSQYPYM
Chain of PDGFRA (P16234 24-1089, species assumed): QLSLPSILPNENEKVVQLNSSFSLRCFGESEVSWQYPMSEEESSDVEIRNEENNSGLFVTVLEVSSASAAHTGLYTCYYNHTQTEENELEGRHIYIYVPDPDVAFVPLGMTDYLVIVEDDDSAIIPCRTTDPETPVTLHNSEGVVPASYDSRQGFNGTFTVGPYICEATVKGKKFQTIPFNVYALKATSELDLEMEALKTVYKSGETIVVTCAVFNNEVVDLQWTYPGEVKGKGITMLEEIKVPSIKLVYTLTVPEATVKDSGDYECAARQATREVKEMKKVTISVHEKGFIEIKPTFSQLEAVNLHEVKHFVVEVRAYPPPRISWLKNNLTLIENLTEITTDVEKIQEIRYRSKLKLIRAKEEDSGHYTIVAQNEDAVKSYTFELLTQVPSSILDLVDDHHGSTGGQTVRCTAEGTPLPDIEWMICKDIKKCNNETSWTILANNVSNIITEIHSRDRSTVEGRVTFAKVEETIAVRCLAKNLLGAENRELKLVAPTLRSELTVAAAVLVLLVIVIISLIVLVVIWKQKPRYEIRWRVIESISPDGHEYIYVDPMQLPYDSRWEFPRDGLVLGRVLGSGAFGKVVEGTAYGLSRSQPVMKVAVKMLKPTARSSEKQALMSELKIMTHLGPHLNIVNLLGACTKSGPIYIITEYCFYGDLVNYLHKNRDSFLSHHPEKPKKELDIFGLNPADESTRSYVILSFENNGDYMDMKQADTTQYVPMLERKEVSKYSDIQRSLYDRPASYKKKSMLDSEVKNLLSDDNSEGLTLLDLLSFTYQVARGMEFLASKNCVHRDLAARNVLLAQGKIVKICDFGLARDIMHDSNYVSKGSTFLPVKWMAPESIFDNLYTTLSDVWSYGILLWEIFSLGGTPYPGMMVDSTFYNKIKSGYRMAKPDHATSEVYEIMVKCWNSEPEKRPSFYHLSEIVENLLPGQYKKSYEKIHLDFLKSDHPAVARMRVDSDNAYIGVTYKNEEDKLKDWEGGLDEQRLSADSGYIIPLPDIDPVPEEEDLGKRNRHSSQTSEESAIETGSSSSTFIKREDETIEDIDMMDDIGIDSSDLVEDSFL

Compound | remaining activity at 100 µM (HIPK3; [1]) | remaining activity at 100 µM (MAPKAP-K3; [1]) | remaining activity at 100 µM (PDGFRA; [1]) | remaining activity at 100 µM (ULK1; [1]) | remaining activity at 100 µM (TLK1; [1]) | remaining activity at 100 µM (PRAK; [1]) | residual kinase activity, HIPK3 (HIPK3; [1]) | residual kinase activity, MAPKAP-K3 (MAPKAP-K3; [1]) | residual kinase activity, PDGFRA (PDGFRA; [1]) | residual kinase activity, ULK1 (ULK1; [1]) | residual kinase activity, TLK1 (TLK1; [1]) | residual kinase activity, PRAK (PRAK; [1]) | residual kinase activity, TGFBR1 (TGFBR1; [1]) | also measured
CC(=O)Nc1nc2cc(O)ccc2s1 [Compound 01-66, N-(5-hydroxybenzo[d]thiazol-2-yl)acetamide] | – | – | – | – | – | – | – | – | – | – | – | – | – | remaining activity at 100 µM (HIPK3): 37%; remaining activity at 100 µM (MAPKAP-K3): 39%; remaining activity at 100 µM (TLK1): 92%; remaining activity at 100 µM (PRAK): 58%
CC(=O)Nc1nc2cc(F)ccc2s1 [Compound 03-77] | 62% | 107% | 59% | 83% | 89% | 76% | – | – | – | – | – | – | – | remaining activity at 100 µM (TGFBR1; [1]): 96%
CC(=O)Nc1nc2cc(C)ccc2s1 [Compound 03-76] | – | – | – | – | – | – | 79 | 106 | 59 | 82 | 106 | 75 | 98 | –
O=C(Nc1nc2ccc(O)cc2s1)c1cccnc1 [Compound 08-44] | – | – | – | – | – | – | 45 | 38 | 44 | 78 | 90 | 60 | 103 | –
O=C(Nc1nc2ccc(O)cc2s1)c1ccccn1 [Compound 03-12] | – | – | – | – | – | – | 84 | 31 | 56 | 96 | 96 | 65 | 117 | –
CC(=O)Nc1nc2ccccc2s1 [Compound 03-32] | – | – | – | – | – | – | 78 | 61 | 78 | 102 | 92 | 78 | 92 | –
CC(=O)Nc1nc2cc(C(F)(F)F)ccc2s1 [Compound 03-73] | 106% | 93% | 34% | 91% | 103% | 87% | – | – | – | – | – | – | – | remaining activity at 100 µM (TGFBR1; [1]): 118%
CC(=O)Nc1cccc(NC(=O)c2nc3ccc(O)cc3s2)c1 [Compound 03-07, N-(3-acetamidophenyl)-6-hydroxybenzo[d]thiazole-2-carboxamide] | – | – | – | – | – | – | – | – | – | – | – | – | – | remaining activity at 100 µM (HIPK3; [2]): 81%; remaining activity at 100 µM (MAPKAP-K3; [2]): 34%; remaining activity at 100 µM (PDGFRA; [2]): 44%; remaining activity at 100 µM (ULK1; [2]): 70%; remaining activity at 100 µM (TLK1; [2]): 108%; remaining activity at 100 µM (PRAK; [2]): 59%; remaining activity at 100 µM (TGFBR1; [2]): 113%
O=C(Nc1nc2cc(O)ccc2s1)c1cccnc1 [Compound 03-33] | – | – | – | – | – | – | 102 | 97 | 61 | 88 | 97 | 83 | 88 | –
O=C(Nc1nc2ccc(O)cc2s1)c1ccccc1 [Compound 03-60] | – | – | – | – | – | – | 38 | 92 | 29 | 47 | 74 | 39 | 93 | –
CC(=O)Nc1nc2ccc(C(F)(F)F)cc2s1 [Compound 01-90] | 69% | 101% | 30% | 87% | 82% | 111% | – | – | – | – | – | – | – | –
CC(=O)Nc1nc2ccc(C#N)cc2s1 [Compound 01-94] | 38% | 101% | 40% | 92% | 53% | 69% | – | – | – | – | – | – | – | –
CC(=O)Nc1nc2ccc(O)cc2s1 [Compound 01-71] | 27% | 34% | – | – | 45% | 47% | – | – | – | – | – | – | – | –

Source: patent US10231954B2, “Neurodegenerative therapies” (LYTIX BIOPHARMA AS, priority 2014, dated 2019)
